Measurements published in PubChem BioAssay (NCI).
Several values for one entry are separate records, joined by “and”; a condition that tells them apart may be missing. Equal values may be shown once.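 In this assay, cells in 96-well plates receive the compound at five concentrations for 48 hours. Endpoints are linearly interpolated between the surrounding concentrations. The concentration for 50% growth inhibition is given as GI50. TGI: concentration producing complete growth inhibition.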

Assays:
Test in all cases: NCI tumour cell line growth inhibition, 48 h
SW-620 colon = test system: SW-620 colon
SN12C renal = test system: SN12C renal
SK-MEL-5 melanoma = test system: SK-MEL-5 melanoma
CCRF-CEM leukemia = test system: CCRF-CEM leukemia
OVCAR-3 ovarian = test system: OVCAR-3 ovarian
A549 NSCLC = test system: A549 NSCLC
SR leukemia = test system: SR leukemia
OVCAR-8 ovarian = test system: OVCAR-8 ovarian
MDA-MB-231 breast = test system: MDA-MB-231 breast
HOP-92 NSCLC = test system: HOP-92 NSCLC

Structure (SMILES) | GI50 (SW-620 colon) [µM] | TGI (SW-620 colon) [µM] | GI50 (SN12C renal) [µM] | TGI (SN12C renal) | GI50 (SK-MEL-5 melanoma) [µM] | TGI (SK-MEL-5 melanoma) [µM] | GI50 (CCRF-CEM leukemia) [µM] | TGI (CCRF-CEM leukemia) | GI50 (OVCAR-3 ovarian) [µM] | TGI (OVCAR-3 ovarian) [µM] | GI50 (A549 NSCLC) [µM] | TGI (A549 NSCLC) [µM] | GI50 (SR leukemia) [µM] | TGI (SR leukemia) [µM] | GI50 (OVCAR-8 ovarian) [µM] | TGI (OVCAR-8 ovarian) | GI50 (MDA-MB-231 breast) [µM] | TGI (MDA-MB-231 breast) [µM] | TGI (HOP-92 NSCLC) | GI50 (HOP-92 NSCLC) [µM]
COc1c(OC2OC(C)C(O)C(O)C2O)c(OC)c2oc(-c3ccc(O)cc3)cc(=O)c2c1O (stereo not given) | 35.7 | > 100 | 27.8 | > 100 µM | 35.4 | > 100 | 31.4 | > 100 µM | 21.5 | 64.4 | 32.3 | > 100 | 19.7 | 93.5 | 28 | > 100 µM | 16.5 | 71.8 |  | 
BrCc1ccc2ccc3ccc(CBr)nc3c2n1 |  | 5.86 |  | 4.55 µM |  | 8.16 |  | 3.75 µM |  | 3.43 |  | 34.7 |  | 5.54 |  | 15.7 µM |  | 6.86 | 4.04 µM | 
NC(=S)c1cccc(C2Nc3ccccc3O2)c1 (stereo not given) |  | > 100 |  | 12.1 µM |  | > 100 |  |  |  | > 100 |  | > 100 |  | > 100 |  | > 100 µM |  | > 100 | > 100 µM | 
COc1ccc(N=c2nc3sc4cc(Cl)ccc4n3c(N)c2C#N)cc1 | 3.69 | 29.7 | 15.3 | > 100 µM | 1.64 | 3.42 | 11 | > 100 µM | 9.66 | 44.8 | 15.4 | > 100 | 8.49 | > 84.8 | 5.05 | > 100 µM | 3.12 | 16.2 | > 88.6 µM | 26.5
Cn1cc(-c2csc(-c3ccc(Cl)cc3)n2)c2cccnc21 | 15 | 29.3 | 14.8 | 32.5 µM | 13.9 | 27.6 | 18.4 | 51.9 µM | 17.1 | 35.6 | 17.6 | 46.4 | 13.3 | 59.6 | 22.8 | 66.6 µM | 13.3 | 33.3 | 19.1 µM | 2.54
O=C(O)C(Cc1ccccc1)N1C(=O)/C(=C/C(Cl)=C/c2ccc([N+](=O)[O-])cc2)SC1=S (stereo not given) |  |  |  |  | 1.68 | 3.06 | 2.92 | > 100 µM | 1.76 | 3.51 | 3.46 | > 100 | 2.45 | > 100 | 3.13 | > 100 µM | 3.35 | > 100 | 5.71 µM | 2.35
COc1cc(C=NCC(=O)CSC(c2ccccc2)c2ccccc2)ccc1O | 15.5 | 31.4 | 14.1 | 28.1 µM | 4.83 | 18.2 | 8.42 | 50.9 µM | 11.3 | 24.9 | 10.7 | 26 | 8.27 | 25.3 | 12.6 | 25.1 µM | 12.8 | 26.7 | 21.7 µM | 10
C=C(CN1CCN(c2ccccn2)CC1)c1ccc(C(=O)Nc2ccccc2N)cc1 | 1.71 | > 50 | 2.35 | > 50 µM | 0.726 | 1.75 |  |  | 1.25 | 4.39 | 2.4 | 37.3 | 5.33 | > 50 | 1.5 | > 50 µM | 2.17 | > 50 | 23.1 µM | 5.7
CC(=O)/C(=N\N=C(N)N)c1ccccc1 |  | > 100 |  | > 100 µM |  | > 100 |  |  |  | > 100 |  | > 100 |  | > 100 |  | > 100 µM |  | > 100 | > 100 µM | 
O=C(OCC1=CC(=O)c2ccccc2C1=O)c1ccccc1 | 4.89 | 17.5 | 15.1 | 28.5 µM | 1.31 | 2.68 | 6.73 | 35.4 µM | 3.47 | 18.7 | 2.41 | 6.24 | 3.51 | 30.8 | 14.4 | 29.1 µM | 14.3 | 28.5 | 34.9 µM | 20.2
CCOC(=O)C(Cc1cc(OC)c(CC(C(=O)OCC)C(=O)OCC)cc1OC)C(=O)OCC |  | > 100 |  | > 100 µM |  | > 100 |  | > 100 µM |  | > 100 |  | > 100 |  | > 100 |  | > 100 µM |  | > 100 | 83.8 µM | 
COC(=O)N[C@@H](C)CNc1nccc(-c2cn(C(C)C)nc2-c2cc(Cl)cc(NS(C)(=O)=O)c2F)n1 | 12.1 | > 100 | > 100 | > 100 µM | > 100 | > 100 | 38.2 | > 100 µM | 62.8 | > 100 | 48.2 | > 100 | 25.6 | > 84.7 | > 100 | > 100 µM | 5.72 | > 100 |  | 
COc1ccc(-c2cn3ccnc3c(-c3ccc(Cl)cc3)n2)cc1 | 4.51 | > 100 | 10.4 | 46 µM | 4.06 | 21.1 |  |  | 3.19 | 71.8 | 7.49 | 99.3 | 1.71 | > 100 | 15 | > 100 µM | 4.13 | 55.9 | 48.4 µM | 10.2
CCCC(=O)Nc1cc(/C=C/C(=O)N2C[C@@H]3C[C@]34C2=CC(=O)c2[nH]cc(C)c24)n(C)c1 |  | 25 | 0.064 | 2.41 µM and 1.59 µM |  | 0.334 |  | 0.131 µM and 0.267 µM |  | 1.2 |  |  |  | 0.0709 | 0.0447 | 0.406 µM and 0.285 µM |  | 1.68 | 1.96 µM and 0.741 µM | 0.282
CSCc1ncc(-c2ccc(C(F)(F)F)cc2)c(NC2CCCCCC2)n1 | > 10 | > 10 | > 10 | > 10 µM | > 10 | > 10 | > 10 | > 10 µM | > 10 | > 10 | > 10 | > 10 | > 10 | > 10 | > 10 | > 10 µM | > 10 | > 10 |  | 
Cc1cc(C)nc(NC(=O)COc2ccc(Cl)cc2)c1 |  | > 100 |  | > 100 µM |  | > 100 |  |  |  | > 100 |  | > 100 |  | > 100 |  | > 100 µM |  | > 100 | > 100 µM | 
